Experimental data: patent US20240181081A1, “Compositions and Methods for Treatment of Myotonic Dystrophy Type 1 with CRISPR/SACAS9” (Vertex Pharmaceuticals Incorporated, priority 2021, published 2024)

Tests used:
[1] = system: CTG repeat expansion in the 3′ UTR of human DMPK gene; experiment: DOUBLE-cut screening: CTG repeat excision by loss-of-signal ddPCR in primary DM1 patient myoblasts; type: cell-based; settings: sgRNA pair RNP, mean of upstream and downstream ddPCR assays; for % of CTG repeat excision efficiency by ddPCR (DNA-PKi): 3 μM Compound 6 for 48 hrs; for % of CTG repeat excision efficiency by ddPCR (Vehicle): DMSO 48 hrs
Method in brief: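 Paired upstream/downstream sgRNAs, each as RNP with recombinant SaCas9 (20 pmol protein:60 pmol sgRNA), mixed 1:1 and nucleofected into primary DM1 myoblasts; cells then given DMSO or 3 μM DNA-PKi Compound 6 for 48 hrs. Genomic DNA taken 72 hrs post-nucleofection; excision is mean of upstream and downstream loss-of-signal ddPCR, normalized to DMPK exon 1 reference.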

[2] = system: CUG RNA foci in primary DM1 patient myoblasts; experiment: DOUBLE-cut screening: FISH staining of RNA foci in primary DM1 patient myoblasts; type: cell-based, human; settings: sgRNA pair RNP, 72 hrs post nucleofection; for % of CUG foci free nuclei (DNA-PKi): 3 μM Compound 6 for 48 hrs; for % of CUG foci free nuclei (Vehicle): DMSO 48 hrs
Method in brief: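 Primary DM1 patient myoblasts nucleofected with paired upstream/downstream sgRNA–SaCas9 RNPs (20 pmol protein, 60 pmol sgRNA each), then treated 48 hrs with DMSO or 3 μM DNA-PK inhibitor. At 72 hrs post nucleofection, CUG foci stained by Cy3-PNA(CAG)5 FISH with MBNL1 co-staining and quantified by high-content confocal imaging.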

| Substance | % of CTG repeat excision efficiency by ddPCR (DNA-PKi) [1] [%] | % of CTG repeat excision efficiency by ddPCR (Vehicle) [1] [%] | % of CUG foci free nuclei (DNA-PKi) [2] [%] | % of CUG foci free nuclei (Vehicle) [2] [%] |
| --- | --- | --- | --- | --- |
| SaU2 + SaD11: SaCas9 sgRNA pair, SEQ ID NOs: 2 and 19 (guide 1 ACTCAGTCTTCCAACGGGGCCC; guide 2 CAAAACGTGGATTGGGGTTGTT; listed as DNA, chemistry not fully specified) | 52.97 | 26.90 | 73.23 | 48.38 |
| SaU7 +SaD13: SaCas9 sgRNA pair, SEQ ID NOs: 7 and 21 (guide 1 CGCGGCCGGCGAACGGGGCTCG; guide 2 CCCAACAACCCCAATCCACGTT; listed as DNA, chemistry not fully specified) | 55.97 | 25.62 | 78.52 | 28.69 |
| SaU3 + SaD2: SaCas9 sgRNA pair, SEQ ID NOs: 3 and 10 (guide 1 ACTCCGGGGCCCCGTTGGAAGA; guide 2 TCGGCCAGGCTGAGGCCCTGAC; listed as DNA, chemistry not fully specified) | 54.49 | 50.85 | 82.73 | 77.08 |
| SaU3 + SaD6: SaCas9 sgRNA pair, SEQ ID NOs: 3 and 14 (guide 1 ACTCCGGGGCCCCGTTGGAAGA; guide 2 CTTTTGCCAAACCCGCTTTTTC; listed as DNA, chemistry not fully specified) | 50.32 | 24.10 | 64.84 | 31.37 |
| SaU4 + SaD19: SaCas9 sgRNA pair, SEQ ID NOs: 4 and 27 (guide 1 CCAGTTCACAACCGCTCCGAGC; guide 2 AGGACCCCCACCCCCGACCCTC; listed as DNA, chemistry not fully specified) | 50.21 | 36.41 | 80.80 | 67.92 |
